Assay results taken from patent US7452894B2, “Purine derivatives as purinergic receptor antagonists” (Vernalis Research Limited, priority 2001, dated 2008).

Row | SMILES | melting point
1 | CCOC(=O)Cn1cnc2c(-c3ccco3)nc(-c3ccco3)nc21 [Example 72, Ethyl 2,6-bis(2-furyl)-9H-purine-9-acetate] | 314 °C
2 | CSc1nc(-c2ccco2)c2ncn(C(=O)OC(C)(C)C)c2n1 [Example 12, tert-Butyl 6-(2-furyl)-2-methylthio-9H-purine-9carboxylate] | 112 to 113 °C
3 | Cc1ccc(-c2nc(N)nc3c2ncn3C(=O)NCc2ccccc2)o1 [Example 204, 2-Amino-N-benzyl-6-(5-methyl-2-furyl)-9H-purine-9-carboxamide] | 160 °C (dec.)
4 | CN1CCN(C(=O)Cn2cnc3c(-c4ccco4)nc(N)nc32)CC1 [Example 97, 6-(2-Furyl)-9-(2-oxo-2-(4-methyl-1-piperazinyl)ethyl)-9H-purine-2-amine] | > 270 °C (dec.)
5 | C=CCNc1nc(-c2ccco2)c2ncn(COCC[Si](C)(C)C)c2n1 | 185.5 to 186 °C
6 | Nc1nc(-c2ccco2)c2ncn(Cc3ccccc3NS(=O)(=O)c3cccs3)c2n1 [Example 238, 6-(2-Furyl)-9-(2-(2-thienylsulphonylamino)benzyl)-9H-purine-2-amine] | 265.6 to 266 °C
7 | CNc1nc(-c2ccco2)c2ncn(COCC[Si](C)(C)C)c2n1 | 160.1 to 160.8 °C
8 | Nc1nc(-c2cc3ccccc3o2)c2ncn(C(=O)NCc3ccccc3)c2n1 [Example 128, 2-Amino-6-(benzofuran-2-yl)-N-benzyl-9H-purine-9-carboxamide] | > 250 °C (dec.)
9 | Cc1ccc(-c2nc(N)nc3[nH]cnc23)nc1 [Example 241, 6-(5-Methyl-2-pyridinyl)-1H-purine-2-amine] | 246.2 to 248 °C
10 | C=CCNc1nc(-c2ccco2)c2nc[nH]c2n1 [Example 17, N-Allyl-6-(2-furyl)-1H-purine-2-amine] | 158.7 to 160.1 °C
11 | Cc1noc(C)c1Cn1cnc2c(-c3ccco3)nc(N)nc21 [Example 229, 9-(3,5-Dimethylisoxazol-4-ylmethyl)-6-(2-furyl)-9H-purine-2-amine] | 282.4 to 282.6 °C
12 | C[Si](C)(C)CCOCn1cnc2c(-c3ccco3)nc(Cl)nc21 | 105.8 to 106.2 °C
13 | C[Si](C)(C)CCOCn1cnc2c(-c3ccco3)nc(NCCO)nc21 | 125.9 to 126.4 °C
14 | Cc1ccc(-c2nc(N)nc3[nH]cnc23)o1 [Example 195, 6-(5-Methyl-2-furyl)-1H-purine-2-amine] | > 190 °C (dec.)
15 | Nc1nc(-c2ccco2)c2ncn(Cc3cccc(C(=O)NCc4ccccc4)c3)c2n1 [Example 226, 3-(2-Amino-6-(2-furyl)-9H-purine-9-ylmethyl)-N-benzylbenzamide] | 243.2 to 243.8 °C
16 | Nc1nc(-c2ccco2)c2ncn(C(=O)N3CCCC3)c2n1 [Example 29, 6-(2-Furyl)-9-(1-pyrrolidinylcarbonyl)-9H-purine-2-amine] | > 300 °C (dec.)

Row | SMILES | melting point
17 | O=C(Nc1ccccc1)Nc1nc(-c2ccco2)c2nc[nH]c2n1 [Example 23, N-(6-(2-Furyl)-1H-purine-2-yl)-N'-phenylurea] | > 330 °C (dec.)
18 | CC(C)(C)OC(=O)n1cnc2c(-c3cccs3)nc(N)nc21 [Example 78, tert-Butyl 2-amino-6-(2-thienyl)-9H-purine-9-carboxylate] | > 250 °C (dec.)
19 | Cc1nc(-c2ccco2)c2nc[nH]c2n1 [Example 153, 6.(2-Furyl)-2-methyl-1H-purine] | 342 °C (dec.)
20 | Nc1nc(-c2ccc(Cl)s2)c2ncn(C(=O)NCc3ccccc3)c2n1 [Example 130, 2-Amino-N-benzyl-6-(5-chloro-2-thienyl)-9H-purine-9-carboxamide] | 194 to 195 °C (dec.)
21 | CC(C)(C)c1ccc(S(=O)(=O)n2cnc3c(-c4ccco4)nc(N)nc32)cc1 [Example 27, 9-(4-tert-Butylphenylsulphonyl)-6-(2-furyl)-9H-purine-2-amine] | 238.7 to 239.2 °C
22 | OC[C@H]1CCCN1c1nc(-c2ccco2)c2nc[nH]c2n1 [Example 9, (2R)-1-(6-(2-Furyl)-1H-purine-2-yl)-2-pyrrolidinemethanol] | 130.9 to 131.5 °C
23 | Nc1nc(-c2cc3ccccc3o2)c2nc[nH]c2n1 [Example 120, 6-(Benzofuran-2-yl)-1H-purine-2-amine] | 310 to 310.3 °C
24 | Nc1nc(-c2cncs2)c2nc[nH]c2n1 [Example 137, 6-(5-Thiazolyl)-1H-purine-2-amine] | 300 °C (dec.)
25 | CNc1nc(-c2ccco2)c2nc[nH]c2n1 [Example 18, 6-(2-Furyl)-N-methyl-1H-purine-2-amine] | 235 to 236 °C (dec.)
26 | CCOC(=O)Cn1cnc2c(-c3ccco3)nc(N(C)C)nc21 [Example 71, Ethyl 2-dimethylamino-6-(2-furyl)-9H-purine-9-acetate] | 180.6 to 181.8 °C
27 | CC(C)(C)OC(=O)n1cnc2c(-c3ccco3)nc(N)nc21 [Example 14, tert-Butyl 2-amino-6-(2-furyl)-9H-purine-9-carboxylate] | 143.2 to 144.1 °C
28 | Cn1cccc1-c1nc(N)nc2[nH]cnc12 [Example 133, 6-(1-Methyl-1H-pyrrol-2-yl)-1H-purine-2-amine] | > 240 °C (dec.)
29 | Nc1nc(-c2ccn[nH]2)c2ncn(Cc3ccccc3F)c2n1 [Example 262, 9-(2-Fluorobenzyl)-6-(1H-pyrazol-3-yl)-9H-purine-2-amine] | 257 to 259 °C
30 | Cc1ccc(Cn2cnc3c(-c4ccco4)nc(C#N)nc32)cc1 [Example 173, 6-(2-Furyl)-9-(4-methylbenzyl)-9H-purine-2-carbonitrile] | 196.5 °C (dec.)
31 | Clc1nc(-c2ccco2)c2nc[nH]c2n1 [Example 8, 2-Chloro-6-(2-furyl)-1H-purine] | > 303 °C (dec.)

Further lines, results first:

Row | melting point | SMILES
32 | 305.4 to 306.8 °C | Nc1nc(-c2ccco2)c2ncn(Cc3cccc4[nH]ccc34)c2n1 [Example 271, 6-(2-Furyl)-9-(4-indolylmethyl)-9H-purine-2-amine]
33 | 279.9 to 281 °C | COc1ccccc1CNC(=O)Cn1cnc2c(-c3ccco3)nc(N)nc21 [Example 236, 2-Amino-6-(2-furyl)-N-(2-methoxybenzyl)-9H-purine-9-acetamide]
34 | 258.7 to 260.1 °C | CCCNC(=O)Cn1cnc2c(-c3ccco3)nc(N)nc21 [Example 124, 2-Amino-6-(2-furyl)-N-n-propyl-9H-purine-9-acetamide]
35 | 223.1 to 226.9 °C | CN(C)C(=O)c1ccc(Cn2cnc3c(-c4ccco4)nc(N)nc32)cc1 [Example 233, 4-(2-Amino-6-(2-furyl)-9H-purine-9-ylmethyl)-N,N-dimethylbenzamide]
36 | > 280 °C (dec.) | CCNC(=O)n1cnc2c(-c3ccco3)nc(N)nc21 [Example 24, 2-Amino-N-ethyl-6-(2-furyl)-9H-purine-9-carboxamide]
37 | > 300 °C (dec.) | CC(=O)n1cnc2c(-c3ccco3)nc(N)nc21 [Example 34, 9-Acetyl-6-(2-furyl)-9H-purine-2-amine]
38 | 290.6 to 290.7 °C | Nc1nc(-c2ccco2)c2ncn(Cc3ccccc3[N+](=O)[O-])c2n1 [Example 197, 6-(2-Furyl)-9-(2-nitrobenzyl)-9H-purine-2-amine]
39 | 287.2 to 287.8 °C | Nc1nc(-c2ccco2)c2ncn(CC(=O)NCc3ccccc3)c2n1 [Example 86, 2-Amino-N-benzyl-6-(2-furyl)-9H-purine-9-acetamide]
40 | 224 to 224.1 °C | CN(Cc1ccccc1)C(=O)Cn1cnc2c(-c3ccco3)nc(N)nc21 [Example 145, 2-Amino-N-benzyl-6-(2-furyl)-N-methyl-9H-purine-9-acetamide]
41 | 247.3 to 247.4 °C | Nc1nc(-c2ccco2)c2ncn(CC(=O)NCCc3ccccc3)c2n1 [Example 123, 2-Amino-6-(2-furyl)-N-(2-phenylethyl)-9H-purine-9-acetamide]
42 | 247 to 252 °C | C[C@H](N)Cn1cnc2c(-c3ccco3)nc(N)nc21 [Example 251, (2S)-9-(2-Amino-1-propyl)-6-(2-furyl)-9H-purine-2-amine]
43 | 290.2 to 291.6 °C | CNC(=O)Cn1cnc2c(-c3ccco3)nc(N)nc21 [Example 89, 2-Amino-6-(2-furyl)-N-methyl-9H-purine-9-acetamide]
44 | 254.7 to 255.3 °C | CS(=O)(=O)Nc1ccccc1Cn1cnc2c(-c3ccco3)nc(N)nc21 [Example 210, 6-(2-Furyl)-9-(2-methanesulphonylaminobenzyl)-9H-purine-2-amine]
45 | > 300 °C (dec.) | Nc1nc(-c2ccco2)c2ncn(C(=O)Oc3ccccc3)c2n1 [Example 22, Phenyl 2-amino-6-(2-furyl)-9H-purine-9-carboxylate]
46 | 289.1 to 289.7 °C | Nc1nc(-c2ccco2)c2ncn(CC(=O)Nc3ccccc3)c2n1 [Example 85, 2-Amino-6-(2-furyl)-N-phenyl-9H-purine-9-acetamide]
47 | 302.5 to 304.8 °C | N#Cc1cccc(Cn2cnc3c(-c4ccco4)nc(N)nc32)c1 [Example 177, 9-(3-Cyanobenzyl)-6-(2-furyl)-9H-purine-2-amine]
48 | 285.6 to 286.4 °C | Nc1nc(-c2ccco2)c2ncn(CC(=O)Nc3cccnc3)c2n1 [Example 143, 2-Amino-6-(2-furyl)-N-(3-pyridyl)-9H-purine-9-acetamide]
49 | 281.3 to 283.2 °C | Nc1nc(-c2ccco2)c2ncn(CC(=O)Nc3ccncc3)c2n1 [Example 142, 2-Amino-6-(2-furyl)-N-(4-pyridyl)-9H-purine-9-acetamide]
50 | 218.2 to 218.5 °C | Nc1nc(-c2ccco2)c2ncn(Cc3cccc(F)c3)c2n1 [Example 203, 9-(3-Fluorobenzyl)-6-(2-furyl)-9H-purine-2-amine]
51 | 190 °C (dec.) | NCCn1cnc2c(-c3ccco3)nc(N)nc21 [Example 257, 9-(2-Aminoethyl)-6-(2-furyl)-9H-purine-2-amine]
52 | > 250 °C (dec.) | Nc1nc(-c2ccco2)c2ncn(CC(=O)NCCO)c2n1 [Example 96, 2-Amino-6-(2-furyl)-N-(2-hydroxyethyl)-9H-purine-9-acetamide]
53 | 291.9 to 292.1 °C | Nc1nc(-c2ccco2)c2ncn(CC(=O)NCc3ccccc3F)c2n1 [Example 237, 2-Amino-N-(2-fluorobenzyl)-6-(2-furyl)-9H-purine9-acetamide]
